Data published in patent US20200281904A1, “PROPHYLACTIC AND/OR THERAPEUTIC AGENT FOR DISEASES INVOLVING IDO EXPRESSION” (TAIHO PHARMACEUTICAL CO., LTD., priority 2017, published 2020).

How the values were obtained:
IDO protein = assay: Inhibitory effect on IDO protein expression, Western blotting; format: cell-based; settings: human stomach cancer line NCI-N87; IFNγ 100 U/mL; 0.001, 0.01, 0.1 and 1 μM; 24 hours; FIG. 1
Description: Protein expression was detected by a Western blotting method. A human stomach cancer line NCI-N87 (CRL-5822) was purchased from American Type Culture Collection (ATCC). The cells were cultured in RPMI1640 (Wako Pure Chemical Industries, Ltd.) medium supplemented with 10% fetal bovine serum (FBS). The cells were seeded in a 6-well plate (#140675, Nunc) at 1×10^6 cells per well. The cells were cultured in a 5% CO2 incubator at 37° C. for 24 hours, INFγ (PeproTech, Inc.) at 100 U/mL and test substances [tanespimycin (Biotrend), ganetespib, BIIBO21 and Compound 1] in amounts of 0.001 μM, 0.01 μM, 0.1 μM and 1 μM each were then added, and the cells were further cultured for 24 hours. After the culturing, the cells were washed with ice-cooled PBS, and the cells were then lysed with a cytolytic agent. The cell lysate solution was centrifuged, and the soluble fraction was then removed, and subjected to thermal denaturation, followed by protein separation by SDS-PAGE.
10-fold dilution of TBST (Santa Cruz) with Milli-Q water was used as a washing solution, and the TBST solution containing 5% Blocking One (nacalai tesque) was used as an antibody diluting solution.
After completion of SDS-PAGE, the protein was transferred to a PVDF membrane (Trans-Blot Turbo Midi PVDF Transfer Pack, Biorad) by using a blotting device (Trans-Blot Turbo Transfer System, Biorad). The membrane after the transfer was blocked by incubation at room temperature for 60 minutes or more with Blocking One. […] The PVDF membrane was washed three times with the washing solution, and then immersed in SuperSignal West Pico Chemiluminescent Substrate (Thermo Scientific) for detection of GAPDH, or SuperSignal West Dura Extended Duration Substrate (Thermo Scientific) for detection of IDO, and chemiluminescence was detected by using Image Analyzer Amersham Imager 600QC (GE Healthcare Japan Corporation).

[1] = system: cells expressing IDO due to addition of IFNγ (IDO-positive cells); assay: Suppressive effect on growth in IDO-positive cells (all four lines, result in words); format: cell-based, human; settings: GIST-T1, HCC827, NCI-H1975, NCI-N87 with IFNγ 100 U/mL; 0.001-10 μM; 72 hours; FIG. 3
Description: (§1) Human stomach cancer line NCI-N87 (CRL-5822), human lung cancer line NCI-H1975 (CRL-5908) and human lung cancer line HCC827 (CRL-2868) were purchased from ATCC, and human gastrointestinal stromal tumor line GIST-T1 (GIST01) was purchased from Cosmo Bio Co., Ltd. NCI-N87, NCI-H1975 and HCC827 were cultured in RPM11640 (Wako Pure Chemical Industries, Ltd.) medium supplemented with 10% FBS, and GIST-T1 was cultured in DMEM (Wako Pure Chemical Industries, Ltd.) medium supplemented with 10% FBS. The IDO protein and GAPDH were detected in the same manner as in Example 1 described above.
The amount of ATP generated from surviving cells was determined by CellTiter-Glo2.0 Assay (# G9243, Promega Corporation) to evaluate the cell growth inhibition ability of test substance. […] The intensity of luminescence was measured using a microplate reader (EnSpire™ Multimode Plate Reader, PerkinElmer Japan Co., Ltd.), and used as an index of the number of surviving cells in each well. Using the intensity of luminescence of a group not treated with a test substance (control group) as a control, the cell survival rate (%) was calculated by using the following equation. […]

NCI-N87 = assay: Cell growth inhibition, CellTiter-Glo2.0 Assay, IFNγ added; format: cell-based; settings: Homo sapiens, IFNγ 100 U/mL, 72 hours, number of surviving cells reduced to 50% of control
Description: as §1
(§2) The amount of ATP generated from surviving cells was determined by CellTiter-Glo2.0 Assay (# G9243, Promega Corporation) to evaluate the cell growth inhibition ability of test substance. The cells of GIST-T1, HCC827, NCI-H1975 and NCI-N87 were seeded in 96-well plates (#165305, Thermo Scientific) at 1×10^4 (NCI-N87), 2×10^3 (HCC827 and HCI-H1975) and 3×10^3 (GIST-T1) per well, and cultured in a 5% CO2 incubator at 37° C. for 24 hours. After the culturing for 24 hours, INFγ (PeproTech) at 100 U/mL and a test substance (Compound 1) in amounts of 0.001 μM, 0.003 μM, 0.01 μM, 0.03 μM, 0.1 μM, 0.3 μM, 1 μM, 3 μM and 10 μM each were added, and further cultured for 72 hours. Equivalent amount of CellTiter-Glo2.0 Assay reagent as the medium was added to each well, the mixture was stirred for 2 minutes using a shaker under shading condition, and the plate was then left to stand at room temperature for about 10 minutes. The intensity of luminescence was measured using a microplate reader (EnSpire™ Multimode Plate Reader, PerkinElmer Japan Co., Ltd.), and used as an index of the number of surviving cells in each well. Using the intensity of luminescence of a group not treated with a test substance (control group) as a control, the cell survival rate (%) was calculated by using the following equation. From the obtained survival rate, the concentration (IC50 (μM)), at which the number of surviving cells is reduced to 50% of the control, was determined by a curve fitting regression analysis tool using Regression Analysis Tool XLfit5.3.0.8 (IDBS Ltd.).
(§3) Cell survival rate=T/C×100
(§4) T: Amount of luminescence in wells with a test substance
(§5) C: Amount of luminescence in wells with no test substance

NCI-H1975 = assay: as above; format: cell-based; settings: Homo sapiens, IFNγ 100 U/mL, 72 hours, number of surviving cells reduced to 50% of control
Description: as §1, §2, §3, §4, §5

HCC827 = assay: as above; format: cell-based; settings: Homo sapiens, IFNγ 100 U/mL, 72 hours, number of surviving cells reduced to 50% of control
Description: as §1, §2, §3, §4, §5

GIST-T1 = assay: as above; format: cell-based; settings: Homo sapiens, GISTT1, IFNγ 100 U/mL, 72 hours, number of surviving cells reduced to 50% of control
Description: as §1, §2, §3, §4, §5

COc1c(C)cnc(Cn2cnc3c(Cl)nc(N)nc32)c1C [BIIBO21]
inhibitory effect on IDO expression (IDO protein): inhibitory effect on IDO expression in a concentration-dependent manner

CCc1cc(C(N)=O)ccc1-n1nc(C(C)C)c2c(-n3cnc(-c4cnn(C)c4)c3)ccnc21 [Compound 1, 3-ethyl-4-{3-isopropyl-4-(4-(1-methyl-1H-pyrazol-4-yl)-1H-imidazol-1-yl)-1H-pyrazolo[3,4-b]pyridin-1-yl}benzamide]
inhibitory effect on IDO expression (IDO protein): inhibitory effect on IDO expression in a concentration-dependent manner
suppressive effect on cell growth [1]: suppressive effect on cell growth in a concentration-dependent manner
IC50 (NCI-N87): 380 nM
IC50 (NCI-H1975): 810 nM
IC50 (HCC827): 1420 nM
IC50 (GIST-T1): 270 nM

CC(C)c1cc(-c2n[nH]c(=O)n2-c2ccc3c(ccn3C)c2)c(O)cc1O [ganetespib]
inhibitory effect on IDO expression (IDO protein): inhibitory effect on IDO expression in a concentration-dependent manner
